Experimental data as given in PubChem BioAssay AID1259407 (Chemical Carcinogenesis Research Information System (CCRIS), 2018).
The source made the active and inactive calls. No rule for the calls is given here.

Test system: CCRIS mutagenicity, Ames/micronucleus/aberration tests
Assay: CCRIS mutagenicity studies

`Oc1cccc2cccnc12` was tested, and the mutagenic call (End Point: IN VITRO CHROMOSOMAL ABERRATIONS, Test System: CHL CELLS, Metabolic Activation: RAT, LIVER, S-9, SODIUM PHENOBARBITAL AND 5,6-BENZOFLAVONE) was “active; positive (structural changes)”, the mutagenic call (End Point: IN VITRO CHROMOSOMAL ABERRATIONS, Test System: CHO-LB CELLS, Metabolic Activation: NONE) was “inactive; negative” and the mutagenic call (End Point: IN VITRO CHROMOSOMAL ABERRATIONS, Test System: CHO-LB CELLS, Metabolic Activation: RAT, LIVER, S-9, AROCLOR 1254) was “active; positive”. The mutagenic call (End Point: IN VITRO CHROMOSOMAL ABERRATIONS, Test System: CHO-WBL CELLS, Metabolic Activation: RAT, LIVER, S-9, PHENOBARBITAL AND BETA-NAPHTHOFLAVONE) was “active; positive”, the mutagenic call (Test System: AMES SALMONELLA TYPHIMURIUM, Strain/Indicator: TA97, Metabolic Activation: HAMSTER, LIVER, S-9, AROCLOR 1254 (10%), Method: PREINCUBATION) was “active; positive” and the mutagenic call (Test System: AMES SALMONELLA TYPHIMURIUM, Strain/Indicator: TA97, Metabolic Activation: NONE, Method: PREINCUBATION) was “inactive; negative”. For the same compound, the mutagenic call (Test System: AMES SALMONELLA TYPHIMURIUM, Strain/Indicator: TA97, Metabolic Activation: RAT, LIVER, S-9, AROCLOR 1254 (10%), Method: PREINCUBATION) was “active; positive”, the mutagenic call (Test System: AMES SALMONELLA TYPHIMURIUM, Strain/Indicator: TA98, Metabolic Activation: HAMSTER, LIVER, S-9, AROCLOR 1254 (10%), Method: PREINCUBATION) was “inactive; negative” and the mutagenic call (Test System: AMES SALMONELLA TYPHIMURIUM, Strain/Indicator: TA98, Metabolic Activation: HAMSTER, LIVER, S-9, AROCLOR 1254 (30%), Method: PREINCUBATION) was “inactive; negative”. The mutagenic call (Test System: AMES SALMONELLA TYPHIMURIUM, Strain/Indicator: TA98, Metabolic Activation: NONE, Method: FLUCTUATION (MICROTITER)) was “inactive; negative”, the mutagenic call (Test System: AMES SALMONELLA TYPHIMURIUM, Strain/Indicator: TA98, Metabolic Activation: NONE, Method: PREINCUBATION) was “inactive; negative” and the mutagenic call (Test System: AMES SALMONELLA TYPHIMURIUM, Strain/Indicator: TA98, Metabolic Activation: RAT LIVER S-9, AROCLOR 1254, Method: FLUCTUATION (MICROTITER)) was “active; positive”. For the same compound, the mutagenic call (Test System: AMES SALMONELLA TYPHIMURIUM, Strain/Indicator: TA98, Metabolic Activation: RAT, LIVER, S-9, AROCLOR 1254 (10%), Method: PREINCUBATION) was “inactive; negative”, the mutagenic call (Test System: AMES SALMONELLA TYPHIMURIUM, Strain/Indicator: TA98, Metabolic Activation: RAT, LIVER, S-9, AROCLOR 1254 (30%), Method: PREINCUBATION) was “active; positive” and the mutagenic call (Test System: AMES SALMONELLA TYPHIMURIUM, Strain/Indicator: TA98, Metabolic Activation: RAT, LIVER, S-9, AROCLOR 1254, Method: STANDARD PLATE) was “active; positive”. The mutagenic call (Test System: AMES SALMONELLA TYPHIMURIUM, Strain/Indicator: TA98, Metabolic Activation: RAT, LIVER, S-9, KC500 OR PHENOBARBITAL, Method: LIQUID SUSPENSION) was “active; positive”, the mutagenic call (Test System: AMES SALMONELLA TYPHIMURIUM, Strain/Indicator: TA98, Metabolic Activation: RAT, LIVER, S-9, Method: PREINCUBATION) was “active; positive” and the mutagenic call (Test System: AMES SALMONELLA TYPHIMURIUM, Strain/Indicator: TA100, Metabolic Activation: HAMSTER, LIVER, S-9, AROCLOR 1254 (10%), Method: PREINCUBATION) was “active; positive”. The mutagenic call (Test System: AMES SALMONELLA TYPHIMURIUM, Strain/Indicator: TA100, Metabolic Activation: HAMSTER, LIVER, S-9, AROCLOR 1254 (30%), Method: PREINCUBATION) was “inactive; negative”, the mutagenic call (Test System: AMES SALMONELLA TYPHIMURIUM, Strain/Indicator: TA100, Metabolic Activation: NONE, Method: PREINCUBATION) was “inactive; negative” and the mutagenic call (Test System: AMES SALMONELLA TYPHIMURIUM, Strain/Indicator: TA100, Metabolic Activation: NONE, Method: STANDARD PLATE) was “inactive; negative”. For the same compound, the mutagenic call (Test System: AMES SALMONELLA TYPHIMURIUM, Strain/Indicator: TA100, Metabolic Activation: RAT, LIVER, S-9, AROCLOR 1254 (5%, 10% OR 20%), Method: STANDARD PLATE) was “active; positive”, the mutagenic call (Test System: AMES SALMONELLA TYPHIMURIUM, Strain/Indicator: TA100, Metabolic Activation: RAT, LIVER, S-9, AROCLOR 1254 (10% OR 20%), Method: STANDARD PLATE) was “active; positive” and the mutagenic call (Test System: AMES SALMONELLA TYPHIMURIUM, Strain/Indicator: TA100, Metabolic Activation: RAT, LIVER, S-9, AROCLOR 1254 (10%), Method: PREINCUBATION) was “active; positive”. For the same compound, the mutagenic call (Test System: AMES SALMONELLA TYPHIMURIUM, Strain/Indicator: TA100, Metabolic Activation: RAT, LIVER, S-9, AROCLOR 1254 (30%), Method: PREINCUBATION) was “active; positive”, the mutagenic call (Test System: AMES SALMONELLA TYPHIMURIUM, Strain/Indicator: TA100, Metabolic Activation: RAT, LIVER, S-9, AROCLOR 1254, Method: STANDARD PLATE) was “active; positive” and the mutagenic call (Test System: AMES SALMONELLA TYPHIMURIUM, Strain/Indicator: TA100, Metabolic Activation: RAT, LIVER, S-9, KC500 OR PHENOBARBITAL, Method: LIQUID SUSPENSION) was “active; positive”. For the same compound, the mutagenic call (Test System: AMES SALMONELLA TYPHIMURIUM, Strain/Indicator: TA100, Metabolic Activation: RAT, LIVER, S-9, Method: PREINCUBATION) was “active; positive”, the mutagenic call (Test System: AMES SALMONELLA TYPHIMURIUM, Strain/Indicator: TA100, Metabolic Activation: S-9, Method: PREINCUBATION) was “active; positive” and the mutagenic call (Test System: AMES SALMONELLA TYPHIMURIUM, Strain/Indicator: TA1535, Metabolic Activation: HAMSTER, LIVER, S-9, AROCLOR 1254 (10%), Method: PREINCUBATION) was “inactive; negative”. For the same compound, the mutagenic call (Test System: AMES SALMONELLA TYPHIMURIUM, Strain/Indicator: TA1535, Metabolic Activation: NONE, Method: PREINCUBATION) was “inactive; negative”, the mutagenic call (Test System: AMES SALMONELLA TYPHIMURIUM, Strain/Indicator: TA1535, Metabolic Activation: RAT, LIVER, S-9, AROCLOR 1254 (10%), Method: PREINCUBATION) was “inactive; negative” and the mutagenic call (Test System: AMES SALMONELLA TYPHIMURIUM, Strain/Indicator: TA1535, Metabolic Activation: RAT, LIVER, S-9, AROCLOR 1254, Method: STANDARD PLATE) was “active; positive”. For the same compound, the mutagenic call (Test System: AMES SALMONELLA TYPHIMURIUM, Strain/Indicator: TA1537, Metabolic Activation: NONE, Method: FLUCTUATION (MICROTITER)) was “inactive; negative”, the mutagenic call (Test System: AMES SALMONELLA TYPHIMURIUM, Strain/Indicator: TA1537, Metabolic Activation: RAT LIVER S-9, AROCLOR 1254, Method: FLUCTUATION (MICROTITER)) was “active; positive” and the mutagenic call (Test System: AMES SALMONELLA TYPHIMURIUM, Strain/Indicator: TA1537, Metabolic Activation: RAT, LIVER, S-9, AROCLOR 1254, Method: STANDARD PLATE) was “active; positive”. For the same compound, the mutagenic call (Test System: AMES SALMONELLA TYPHIMURIUM, Strain/Indicator: TA7001, Metabolic Activation: NONE, Method: FLUCTUATION (MICROTITER)) was “inactive; negative”, the mutagenic call (Test System: AMES SALMONELLA TYPHIMURIUM, Strain/Indicator: TA7001, Metabolic Activation: RAT LIVER S-9, AROCLOR 1254, Method: FLUCTUATION (MICROTITER)) was “inactive; negative” and the mutagenic call (Test System: AMES SALMONELLA TYPHIMURIUM, Strain/Indicator: TA7002, Metabolic Activation: NONE, Method: FLUCTUATION (MICROTITER)) was “inactive; negative”. The mutagenic call (Test System: AMES SALMONELLA TYPHIMURIUM, Strain/Indicator: TA7002, Metabolic Activation: RAT LIVER S-9, AROCLOR 1254, Method: FLUCTUATION (MICROTITER)) was “active; positive”, the mutagenic call (Test System: AMES SALMONELLA TYPHIMURIUM, Strain/Indicator: TA7003, Metabolic Activation: NONE, Method: FLUCTUATION (MICROTITER)) was “inactive; negative” and the mutagenic call (Test System: AMES SALMONELLA TYPHIMURIUM, Strain/Indicator: TA7003, Metabolic Activation: RAT LIVER S-9, AROCLOR 1254, Method: FLUCTUATION (MICROTITER)) was “inactive; negative”. The mutagenic call (Test System: AMES SALMONELLA TYPHIMURIUM, Strain/Indicator: TA7004, Metabolic Activation: NONE, Method: FLUCTUATION (MICROTITER)) was “inactive; negative”, the mutagenic call (Test System: AMES SALMONELLA TYPHIMURIUM, Strain/Indicator: TA7004, Metabolic Activation: RAT LIVER S-9, AROCLOR 1254, Method: FLUCTUATION (MICROTITER)) was “inactive; negative” and the mutagenic call (Test System: AMES SALMONELLA TYPHIMURIUM, Strain/Indicator: TA7005, Metabolic Activation: NONE, Method: FLUCTUATION (MICROTITER)) was “inactive; negative”. For the same compound, the mutagenic call (Test System: AMES SALMONELLA TYPHIMURIUM, Strain/Indicator: TA7005, Metabolic Activation: RAT LIVER S-9, AROCLOR 1254, Method: FLUCTUATION (MICROTITER)) was “active; positive”, the mutagenic call (Test System: AMES SALMONELLA TYPHIMURIUM, Strain/Indicator: TA7006, Metabolic Activation: NONE, Method: FLUCTUATION (MICROTITER)) was “inactive; negative” and the mutagenic call (Test System: AMES SALMONELLA TYPHIMURIUM, Strain/Indicator: TA7006, Metabolic Activation: RAT LIVER S-9, AROCLOR 1254, Method: FLUCTUATION (MICROTITER)) was “inactive; negative”. The mutagenic call (Test System: UDS RODENT HEPATOCYTES, Strain/Indicator: THY INCORP (NON-S-PHASE), Metabolic Activation: IN VIVO, Method: AUTORADIOGRAPHY) was “inactive; negative”.
